# Source: the supplement of paper PMC10307832
# How the values were obtained:
# Assay in all cases: relative viability (nuclei count vs DMSO), 5 days (fraction); higher = more cells survive
# [1] = system: 201T
# Method in brief: (§1)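 Each reported value is a median over duplicate plates. It expresses relative viability: treated-well nuclei count divided by vehicle-well nuclei count. Lung cancer cell lines in 1536-well plates were dosed by pin tool a day after seeding, alone with one drug or with a fixed anchor-drug dose plus five library-drug doses (not always all listed) in √10 steps, and nuclei were counted after 5 days.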
# [2] = system: COR-L 105
# Method in brief: as §1
# [3] = system: COR-L23
# Method in brief: as §1
# [4] = system: EKVX
# Method in brief: as §1
# [5] = system: EPLC-272H
# Method in brief: as §1
# [6] = system: H3255
# Method in brief: as §1
# [7] = system: HCC-15
# Method in brief: as §1
# [8] = system: HCC-827
# Method in brief: as §1
# [9] = system: LCLC-97TM1
# Method in brief: as §1
# [10] = system: NCI-H1395
# Method in brief: as §1
# [11] = system: NCI-H1648
# Method in brief: as §1
# [12] = system: NCI-H1650
# Method in brief: as §1
# [13] = system: NCI-H1651
# Method in brief: as §1
# [14] = system: NCI-H1792
# Method in brief: as §1
# [15] = system: NCI-H1915
# Method in brief: as §1
# [16] = system: NCI-H2023
# Method in brief: as §1
# [17] = system: NCI-H322M
# Method in brief: as §1
# [18] = system: NCI-H358
# Method in brief: as §1
# [19] = system: NCI-H460
# Method in brief: as §1
# [20] = system: NCI-H520
# Method in brief: as §1
# [21] = system: NCI-H647
# Method in brief: as §1
# [22] = system: SK-MES-1
# Method in brief: as §1
# [23] = system: SW 900
# Method in brief: as §1
# [24] = system: NCI-H596
# Method in brief: as §1
smiles,measurement,setting,value
C=C1C(=O)O[C@@H](CCCCCCCC)[C@@H]1C(=O)O [C-75] + CC(=O)c1c(C)c2cnc(Nc3ccc(N4CCNCC4)cn3)nc2n(C2CCCC2)c1=O [Palbociclib] (partner 0.5 µM),relative viability,[1]; first compound 0.08 µM,0.377
same,relative viability,[1]; first compound 0.253 µM,0.374
same,relative viability,[1]; first compound 0.8 µM,0.336
same,relative viability,[1]; first compound 2.53 µM,0.3
same,relative viability,[1]; first compound 8 µM,0.347
same,relative viability,[2]; first compound 0.08 µM,0.417
same,relative viability,[2]; first compound 0.253 µM,0.41
same,relative viability,[2]; first compound 0.8 µM,0.358
same,relative viability,[2]; first compound 2.53 µM,0.303
same,relative viability,[2]; first compound 8 µM,0.39
same,relative viability,[3]; first compound 0.08 µM,0.353
same,relative viability,[3]; first compound 0.253 µM,0.305
same,relative viability,[3]; first compound 0.8 µM,0.255
same,relative viability,[3]; first compound 2.53 µM,0.24
same,relative viability,[3]; first compound 8 µM,0.28
same,relative viability,[4]; first compound 0.08 µM,0.4
same,relative viability,[4]; first compound 0.253 µM,0.307
same,relative viability,[4]; first compound 0.8 µM,0.383
same,relative viability,[4]; first compound 8 µM,0.425
same,relative viability,[5]; first compound 0.08 µM,0.312
same,relative viability,[5]; first compound 0.253 µM,0.387
same,relative viability,[5]; first compound 0.8 µM,0.333
same,relative viability,[5]; first compound 2.53 µM,0.244
same,relative viability,[5]; first compound 8 µM,0.365
same,relative viability,[6]; first compound 0.08 µM,0.319
same,relative viability,[6]; first compound 0.253 µM,0.28
same,relative viability,[6]; first compound 0.8 µM,0.323
same,relative viability,[6]; first compound 2.53 µM,0.281
same,relative viability,[6]; first compound 8 µM,0.329
same,relative viability,[7]; first compound 0.08 µM,0.717
same,relative viability,[7]; first compound 0.253 µM,0.699
same,relative viability,[7]; first compound 0.8 µM,0.605
same,relative viability,[7]; first compound 2.53 µM,0.628
same,relative viability,[7]; first compound 8 µM,0.664
same,relative viability,[8]; first compound 0.253 µM,0.519
same,relative viability,[8]; first compound 0.8 µM,0.5
same,relative viability,[8]; first compound 8 µM,0.494
same,relative viability,[9]; first compound 0.08 µM,0.225
same,relative viability,[9]; first compound 0.253 µM,0.261
same,relative viability,[9]; first compound 0.8 µM,0.177
same,relative viability,[9]; first compound 2.53 µM,0.18
same,relative viability,[9]; first compound 8 µM,0.239
same,relative viability,[10]; first compound 0.08 µM,0.586
same,relative viability,[10]; first compound 0.253 µM,0.584
same,relative viability,[10]; first compound 2.53 µM,0.588
same,relative viability,[10]; first compound 8 µM,0.597
same,relative viability,[11]; first compound 0.08 µM,0.251
same,relative viability,[11]; first compound 0.253 µM,0.398
same,relative viability,[11]; first compound 0.8 µM,0.292
same,relative viability,[11]; first compound 8 µM,0.295
same,relative viability,[12]; first compound 0.08 µM,0.431
same,relative viability,[12]; first compound 0.253 µM,0.414
same,relative viability,[12]; first compound 0.8 µM,0.342
same,relative viability,[12]; first compound 8 µM,0.38
same,relative viability,[13]; first compound 0.08 µM,0.509
same,relative viability,[13]; first compound 0.253 µM,0.521
same,relative viability,[13]; first compound 0.8 µM,0.521
same,relative viability,[13]; first compound 2.53 µM,0.476
same,relative viability,[13]; first compound 8 µM,0.55
same,relative viability,[14]; first compound 0.08 µM,0.67
same,relative viability,[14]; first compound 0.253 µM,0.656
same,relative viability,[14]; first compound 0.8 µM,0.686
same,relative viability,[14]; first compound 2.53 µM,0.381
same,relative viability,[14]; first compound 8 µM,0.65
same,relative viability,[15]; first compound 0.08 µM,0.515
same,relative viability,[15]; first compound 0.253 µM,0.556
same,relative viability,[15]; first compound 0.8 µM,0.546
same,relative viability,[15]; first compound 2.53 µM,0.472
same,relative viability,[15]; first compound 8 µM,0.5
same,relative viability,[16]; first compound 0.08 µM,0.395
same,relative viability,[16]; first compound 0.253 µM,0.449
same,relative viability,[16]; first compound 0.8 µM,0.358
same,relative viability,[16]; first compound 2.53 µM,0.244
same,relative viability,[16]; first compound 8 µM,0.276
same,relative viability,[17]; first compound 0.08 µM,0.481
same,relative viability,[17]; first compound 0.253 µM,0.525
same,relative viability,[17]; first compound 0.8 µM,0.479
same,relative viability,[17]; first compound 8 µM,0.481
same,relative viability,[18]; first compound 0.08 µM,0.137
same,relative viability,[18]; first compound 0.253 µM,0.135
same,relative viability,[18]; first compound 0.8 µM,0.147
same,relative viability,[18]; first compound 8 µM,0.135
same,relative viability,[19]; first compound 0.08 µM,0.0813
same,relative viability,[19]; first compound 0.253 µM,0.104
same,relative viability,[19]; first compound 0.8 µM,0.126
same,relative viability,[19]; first compound 2.53 µM,0.132
same,relative viability,[19]; first compound 8 µM,0.155
same,relative viability,[20]; first compound 0.08 µM,0.186
same,relative viability,[20]; first compound 0.253 µM,0.238
same,relative viability,[20]; first compound 0.8 µM,0.225
same,relative viability,[20]; first compound 2.53 µM,0.225
same,relative viability,[20]; first compound 8 µM,0.211
same,relative viability,[21]; first compound 0.08 µM,0.312
same,relative viability,[21]; first compound 0.253 µM,0.384
same,relative viability,[21]; first compound 0.8 µM,0.394
same,relative viability,[21]; first compound 2.53 µM,0.239
same,relative viability,[21]; first compound 8 µM,0.236
same,relative viability,[22]; first compound 0.08 µM,0.321
same,relative viability,[22]; first compound 0.253 µM,0.349
same,relative viability,[22]; first compound 0.8 µM,0.309
same,relative viability,[22]; first compound 2.53 µM,0.264
same,relative viability,[22]; first compound 8 µM,0.292
same,relative viability,[23]; first compound 0.08 µM,0.49
same,relative viability,[23]; first compound 0.253 µM,0.647
same,relative viability,[23]; first compound 0.8 µM,0.601
same,relative viability,[23]; first compound 2.53 µM,0.594
same,relative viability,[23]; first compound 8 µM,0.607
C=C1C(=O)O[C@@H](CCCCCCCC)[C@@H]1C(=O)O [C-75] + NC(=O)Nc1cc(-c2cccc(F)c2)sc1C(=O)N[C@H]1CCCNC1 [AZD7762] (partner 0.2 µM),relative viability,[1]; first compound 0.08 µM,0.588
same,relative viability,[1]; first compound 0.253 µM,0.687
same,relative viability,[1]; first compound 0.8 µM,0.631
same,relative viability,[1]; first compound 2.53 µM,0.507
same,relative viability,[1]; first compound 8 µM,0.566
same,relative viability,[4]; first compound 0.08 µM,0.683
same,relative viability,[4]; first compound 0.253 µM,0.765
same,relative viability,[4]; first compound 0.8 µM,0.498
same,relative viability,[4]; first compound 8 µM,0.51
same,relative viability,[5]; first compound 0.08 µM,0.23
same,relative viability,[5]; first compound 0.253 µM,0.257
same,relative viability,[5]; first compound 0.8 µM,0.188
same,relative viability,[5]; first compound 2.53 µM,0.196
same,relative viability,[5]; first compound 8 µM,0.266
same,relative viability,[6]; first compound 0.08 µM,0.847
same,relative viability,[6]; first compound 0.253 µM,0.893
same,relative viability,[6]; first compound 0.8 µM,0.774
same,relative viability,[6]; first compound 2.53 µM,0.885
same,relative viability,[6]; first compound 8 µM,0.865
same,relative viability,[7]; first compound 0.08 µM,1.37
same,relative viability,[7]; first compound 0.253 µM,1.39
same,relative viability,[7]; first compound 0.8 µM,1.2
same,relative viability,[7]; first compound 2.53 µM,0.78
same,relative viability,[7]; first compound 8 µM,1.22
same,relative viability,[8]; first compound 0.253 µM,0.245
same,relative viability,[8]; first compound 0.8 µM,0.201
same,relative viability,[8]; first compound 8 µM,0.355
same,relative viability,[9]; first compound 0.08 µM,0.248
same,relative viability,[9]; first compound 0.253 µM,0.581
same,relative viability,[9]; first compound 0.8 µM,0.218
same,relative viability,[9]; first compound 2.53 µM,0.254
same,relative viability,[9]; first compound 8 µM,0.833
same,relative viability,[10]; first compound 0.08 µM,0.358
same,relative viability,[10]; first compound 0.253 µM,0.386
same,relative viability,[10]; first compound 2.53 µM,0.4
same,relative viability,[10]; first compound 8 µM,0.413
same,relative viability,[11]; first compound 0.08 µM,0.75
same,relative viability,[11]; first compound 0.253 µM,1.2
same,relative viability,[11]; first compound 0.8 µM,0.712
same,relative viability,[11]; first compound 8 µM,0.622
same,relative viability,[13]; first compound 0.08 µM,0.431
same,relative viability,[13]; first compound 0.253 µM,0.511
same,relative viability,[13]; first compound 0.8 µM,0.358
same,relative viability,[13]; first compound 2.53 µM,0.374
same,relative viability,[13]; first compound 8 µM,0.509
same,relative viability,[14]; first compound 0.08 µM,0.787
same,relative viability,[14]; first compound 0.253 µM,0.623
same,relative viability,[14]; first compound 0.8 µM,0.748
same,relative viability,[14]; first compound 2.53 µM,0.443
same,relative viability,[14]; first compound 8 µM,0.554
same,relative viability,[15]; first compound 0.08 µM,0.716
same,relative viability,[15]; first compound 0.253 µM,0.683
same,relative viability,[15]; first compound 0.8 µM,0.739
same,relative viability,[15]; first compound 2.53 µM,0.621
same,relative viability,[15]; first compound 8 µM,0.79
same,relative viability,[17]; first compound 0.08 µM,0.587
same,relative viability,[17]; first compound 0.253 µM,0.684
same,relative viability,[17]; first compound 0.8 µM,0.552
same,relative viability,[17]; first compound 8 µM,0.587
same,relative viability,[18]; first compound 0.08 µM,0.55
same,relative viability,[18]; first compound 0.253 µM,0.531
same,relative viability,[18]; first compound 0.8 µM,0.454
same,relative viability,[18]; first compound 2.53 µM,0.456
same,relative viability,[18]; first compound 8 µM,0.477
same,relative viability,[19]; first compound 0.08 µM,0.685
same,relative viability,[19]; first compound 0.253 µM,0.805
same,relative viability,[19]; first compound 0.8 µM,0.595
same,relative viability,[19]; first compound 2.53 µM,0.555
same,relative viability,[19]; first compound 8 µM,0.706
same,relative viability,[24]; first compound 0.08 µM,1.23
same,relative viability,[24]; first compound 0.253 µM,1.12
same,relative viability,[24]; first compound 0.8 µM,0.998
same,relative viability,[24]; first compound 2.53 µM,0.975
same,relative viability,[24]; first compound 8 µM,0.988
same,relative viability,[21]; first compound 0.08 µM,0.412
same,relative viability,[21]; first compound 0.253 µM,0.405
same,relative viability,[21]; first compound 0.8 µM,0.329
same,relative viability,[21]; first compound 2.53 µM,0.444
same,relative viability,[21]; first compound 8 µM,0.373
same,relative viability,[23]; first compound 0.08 µM,0.663
same,relative viability,[23]; first compound 0.253 µM,0.69
same,relative viability,[23]; first compound 0.8 µM,0.623
same,relative viability,[23]; first compound 2.53 µM,0.576
same,relative viability,[23]; first compound 8 µM,0.611
